Measured values: US20090042856A1, “PYRIDAZINONE DERIVATIVES USED FOR THE TREATMENT OF PAIN” (Astellas Pharma Inc, priority 2005, published 2009)
Where a name gives a salt, the structure may show the parent alone.

What follows are molecules tested on TNF-α production in THP-1 cells (assay: Inhibition of TNF-α production in THP-1 cells). Details: Homo sapiens; TNF-α levels from LPS (10 μg/mL) stimulated THP-1 cells, 100 nM test compound, 20 hours, vs 0.1% DMSO control.
Format: cell-based
Procedure: THP-1 cells, a human monocytic cell line, were maintained in RPMI 1640 (Sigma R8758) supplemented with penicillin (50 U/ml), streptomycin (50 μg/ml) and 10% fetal bovine serum (Moregate BioTech.) at 37° C., 5% CO2 in a humidified incubator. Initial stock solutions of test compounds were made in DMSO. All cells, reagents and test compounds were diluted into culture media. THP-1 cells (1×10^5 cells/well final) and lipopolysaccharide (LPS; 10 μg/mL final; Sigma L-4005, from E. coli serotype 055:B5) were added to 96 well polypropylene culture plates (Sumilon, MS-8196F5; sterile) containing test compound or 0.1% DMSO vehicle. The cell mixture was incubated for 20 hours in a humidified incubator at 37° C., 5% CO2. The culture supernatants were harvested and TNF-α levels from LPS stimulated cells in the presence of 100 nM test compound was calculated compared with control cells stimulated in the presence of 0.1% DMSO.
`Cc1ccccc1-n1nc(-c2c(-c3ccc(F)cc3)nn3c2NC(CO)CC3)ccc1=O` (stereo in doubt) [Example 124, 6-[(5S)-2-(4-Fluorophenyl)-5-(hydroxymethyl)-4,5,6,7-tetrahydropyrazolo[1,5-a]pyrimidin-3-yl]-2-(2-methylphenyl)pyridazin-3(2H)-one] was tested, and the inhibition at 0.1 µM was 94%. `Cc1ccccc1-n1nc(-c2c(-c3ccc(F)cc3F)nn3c2NCC(CN(C)C)C3)ccc1=O` (stereo not shown) [Example 1, 6-{2-(2,4-difluorophenyl)-6-[(dimethylamino)methyl]-4,5,6,7-tetrahydropyrazolo[1,5-a]pyrimidin-3-yl}-2-(2-methylphenyl)-3(2H)-pyridazinone] showed an inhibition at 0.1 µM of 88%. With `Cc1ccccc1-n1nc(-c2c(-c3ccc(F)cc3F)nn3cc(CN(C)C)cnc23)ccc1=O` [Example 2, 6-{2-(2,4-Difluorophenyl)-6-[(dimethylamino)methyl]pyrazolo[1,5-a]pyrimidin-3-yl}-2-(2-methylphenyl)-3(2H)-pyridazinone] the inhibition at 0.1 µM was 98%. `CCN1CCn2nc(-c3ccc(F)cc3)c(-c3ccc(=O)n(-c4ccccc4C)n3)c21` [Example 6, 6-[1-Ethyl-6-(4-fluorophenyl)-2,3-dihydro-1H-imidazo[1,2-b]pyrazol-7-yl]-2-(2-methylphenyl)-3(2H)-pyridazinone] showed an inhibition at 0.1 µM of 80%. In the case of `Cc1ccccc1-n1nc(-c2c(-c3ccc(F)cc3)nn3c2NCC(CO)(CO)C3)ccc1=O` [Example 35, 6-[2-(4-Fluorophenyl)-6,6-bis(hydroxymethyl)-4,5,6,7-tetrahydropyrazolo[1,5-a]pyrimidin-3-yl]-2-(2-methylphenyl)pyridazin-3(2H)-one], the inhibition at 0.1 µM is reported as 90%. Molecule `Cc1ccccc1-n1nc(-c2c(-c3ccc(F)cc3F)nn3c2NCC(CO)C3)ccc1=O` (stereo not shown) [Example 37, 6-[2-(2,4-Difluorophenyl)-6-(hydroxymethyl)-4,5,6,7-tetrahydropyrazolo[1,5-a]pyrimidin-3-yl]-2-(2-methylphenyl)pyridazin-3(2H)-one] has an inhibition at 0.1 µM of 94%. `Cc1ccccc1-n1nc(-c2c(-c3ccc(F)cc3)nn3c2NCC(CN2CCN(C)CC2)C3)ccc1=O` (stereo not shown) [Example 47, 6-(2-(4-Fluorophenyl)-6-[(4-methylpiperazin-1-yl)methyl]-4,5,6,7-tetrahydropyrazolo[1,5-a]pyrimidin-3-yl)-2-(2-methylphenyl)pyridazin-3(2H)-one dihydrochloride] gave an inhibition at 0.1 µM of 95%. Molecule `Cc1ccccc1N1N=C(c2c(-c3ccc(F)cc3F)nn3c2NCC(CN(C)C)C3)CCC1=O` (stereo not shown) [Example 55, 6-{2-(2,4-difluorophenyl)-6-[(dimethylamino)methyl]-4,5,6,7-tetrahydropyrazolo[1,5-a]pyrimidin-3-yl}-2-(2-methylphenyl)-4,5-dihydropyridazin-3(2H)-one] has an inhibition at 0.1 µM of 98%. In the case of `Cc1ccccc1-n1nc(-c2c(-c3ccc(F)cc3)nn3c2NCC(C(=O)NC2CC2)C3)ccc1=O` (stereo not shown) [Example 57, N-cyclopropyl-2-(4-fluorophenyl)-3-[1-(2-methylphenyl)-6-oxo-1,6-dihydropyridazin-3-yl]-4,5,6,7-tetrahydropyrazolo[1,5-a]pyrimidine-6-carboxamide], the inhibition at 0.1 µM is reported as 97%. With `Cc1ccccc1-n1nc(-c2c(-c3ccc(F)cc3)nn3c2NCC(F)(F)C3)ccc1=O` [Example 85, 6-[6,6-Difluoro-2-(4-fluorophenyl)-4,5,6,7-tetrahydropyrazolo[1,5-a]pyrimidin-3-yl]-2-(2-methylphenyl)pyridazin-3(2H)-one] the inhibition at 0.1 µM was 88%. `Cc1ccccc1-n1nc(-c2c(-c3ccc(F)cc3F)nn3c2NCC(CNC(C)(C)C)C3)ccc1=O` (stereo not shown) [Example 98, 6-{6-[(tert-Butylamino)methyl]-2-(2,4-difluorophenyl)-4,5,6,7-tetrahydropyrazolo[1,5-a]pyrimidin-3-yl}-2-(2-methylphenyl)pyridazin-3(2H)-one] was tested, and the inhibition at 0.1 µM was 86%. In the case of `CC(=O)N1CCC2(CC1)CNc1c(-c3ccc(=O)n(-c4ccccc4C)n3)c(-c3ccc(F)cc3)nn1C2` [Example 107, 6-[1-acetyl-2′-(4-fluorophenyl)-4′,5′-dihydrospiro[piperidine-4,6′-pyrazolo[1,5-a]pyrimidin]-3′-yl]-2-(2-methylphenyl)pyridazin-3(2H)-one], the inhibition at 0.1 µM is reported as 90%. Molecule `Cc1ccccc1-n1nc(-c2c(-c3ccc(F)cc3)nn3c2N[C@H](CO)CC3)ccc1=O` [Example 123, 6-[(5S)-2-(4-fluorophenyl)-5-(hydroxymethyl)-4,5,6,7-tetrahydropyrazolo[1,5-a]pyrimidin-3-yl]-2-(2-methylphenyl)pyridazin-3(2H)-one] has an inhibition at 0.1 µM of 94%. Molecule `Cc1ccccc1-n1nc(-c2c(-c3ccc(F)cc3)nn3c2OCC3)ccc1=O` [Example 125, 6-[6-(4-fluorophenyl)-2,3-dihydropyrazolo[5,1-b][1,3]oxazol-7-yl]-2-(2-methylphenyl)pyridazin-3(2H)-one] has an inhibition at 0.1 µM of 83%. `Cc1ccccc1-n1nc(-c2c(-c3ccccc3)nn3c2CN(C(C)C)CC3)ccc1=O` [Example 130, 6-(5-isopropyl-2-phenyl-4,5,6,7-tetrahydropyrazolo[1,5-a]pyrazin-3-yl)-2-(2-methylphenyl)pyridazin-3(2H)-one] gave an inhibition at 0.1 µM of 70%.

What follows are molecules tested on adjuvant-induced arthritis rats (assay: Inhibition of hind paw swelling in adjuvant-induced arthritis rats). Details: Rattus norvegicus, po, 600 h, dose 0.3 mg/kg orally once a day from days 15 to 24, left hind paw volume on day 25, read-out: % inhibition of vehicle-treated rats.
Format: in vivo, Lewis rats
Procedure: Arthritis was induced by injection of 0.5 mg of Mycobacterium tuberculosis (Difco Laboratories, Detroit, Mich.) in 50 μL of liquid paraffin into the right hind footpad of female Lewis rats aged 7 weeks (day 0). Normal untreated rats were used as negative controls. Animals were randomized and grouped (n≧5) for drug treatment based on an increase of left hind paw volume and body weight on day 15. Test compounds were suspended in vehicle (0.5% methylcellulose) and orally administered once a day from days 15 to 24. The volume of the left hind paw was measured on day 25 by a water displacement method using a plethymometer for rats (MK-550; Muromachi Kikai Co., Ltd., Tokyo, Japan).
Work on `Cc1ccccc1-n1nc(-c2c(-c3ccc(F)cc3F)nn3c2NCC(CN(C)C)C3)ccc1=O` (stereo not shown) [Example 1, 6-{2-(2,4-difluorophenyl)-6-[(dimethylamino)methyl]-4,5,6,7-tetrahydropyrazolo[1,5-a]pyrimidin-3-yl}-2-(2-methylphenyl)-3(2H)-pyridazinone] yielded an inhibition in vivo at 0.3 mg/kg of 51.2%.

Same assay, conditions: Rattus norvegicus, po, 600 h, dose 0.5 mg/kg orally once a day from days 15 to 24, left hind paw volume on day 25, read-out: % inhibition of vehicle-treated rats
In the case of `Cc1ccccc1-n1nc(-c2c(-c3ccc(F)cc3)nn3c2NC[C@@H](O)C3)ccc1=O` [Example 100, 6-[(6R)-2-(4-Fluorophenyl)-6-hydroxy-4,5,6,7-tetrahydropyrazolo[1,5-a]pyrimidin-3-yl]-2-(2-methylphenyl)pyridazin-3(2H)-one], the inhibition in vivo at 0.5 mg/kg is reported as 40.2%.

Same assay, conditions: Rattus norvegicus, po, 600 h, dose 1 mg/kg orally once a day from days 15 to 24, left hind paw volume on day 25, read-out: % inhibition of vehicle-treated rats
`Cc1ccccc1-n1nc(-c2c(-c3ccc(F)cc3)nn3c2NC(CO)CC3)ccc1=O` (stereo in doubt) [Example 124, 6-[(5S)-2-(4-Fluorophenyl)-5-(hydroxymethyl)-4,5,6,7-tetrahydropyrazolo[1,5-a]pyrimidin-3-yl]-2-(2-methylphenyl)pyridazin-3(2H)-one] showed an inhibition in vivo at 1 mg/kg of 50.6%. Molecule `Cc1ccccc1-n1nc(-c2c(-c3ccc(F)cc3)nn3c2NCC(CO)C3)ccc1=O` (stereo not shown) [Example 3, 6-[2-(4-Fluorophenyl)-6-(hydroxymethyl)-4,5,6,7-tetrahydropyrazolo[1,5-a]pyrimidin-3-yl]-2-(2-methylphenyl)-3(2H)-pyridazinone] has an inhibition in vivo at 1 mg/kg of 56.4%. `Cc1ccccc1-n1nc(-c2c(-c3ccc(F)cc3)nn3c2NCC(O)C3)ccc1=O` (stereo not shown) [Example 18, 6-[2-(4-Fluorophenyl)-6-hydroxy-4,5,6,7-tetrahydropyrazolo[1,5-a]pyrimidin-3-yl]-2-(2-methylphenyl)-3(2H)-pyridazinone] showed an inhibition in vivo at 1 mg/kg of 46.1%. Work on `Cc1ccccc1-n1nc(-c2c(-c3ccc(F)cc3F)nn3c2NCC(CO)C3)ccc1=O` (stereo not shown) [Example 37, 6-[2-(2,4-Difluorophenyl)-6-(hydroxymethyl)-4,5,6,7-tetrahydropyrazolo[1,5-a]pyrimidin-3-yl]-2-(2-methylphenyl)pyridazin-3(2H)-one] yielded an inhibition in vivo at 1 mg/kg of 63.6%. In the case of `Cc1ccccc1-n1nc(-c2c(-c3ccc(F)cc3)nn3c2NCC2(CCOCC2)C3)ccc1=O` [Example 63, 6-[2′-(4-Fluorophenyl)-2,3,4′,5,5′,6-hexahydrospiro[pyran-4,6′-pyrazolo[1,5-a]pyrimidin]-3′-yl]-2-(2-methylphenyl)pyridazin-3(2H)-one], the inhibition in vivo at 1 mg/kg is reported as 39.5%. With `Cc1ccccc1-n1nc(-c2c(-c3ccc(F)cc3)nn3c2NCC2(C3)OCCO2)ccc1=O` [Example 86, 6-[2′-(4-Fluorophenyl)-4′,5′-dihydrospiro[1,3-dioxolane-2,6′-pyrazolo[1,5-a]pyrimidin]-3′-yl]-2-(2-methylphenyl)pyridazin-3(2H)-one] the inhibition in vivo at 1 mg/kg was 48.1%. For `Cc1ccccc1-n1nc(-c2c(-c3ccc(F)cc3)nn3c2N[C@H](CO)CC3)ccc1=O` [Example 123, 6-[(5S)-2-(4-fluorophenyl)-5-(hydroxymethyl)-4,5,6,7-tetrahydropyrazolo[1,5-a]pyrimidin-3-yl]-2-(2-methylphenyl)pyridazin-3(2H)-one], the inhibition in vivo at 1 mg/kg was 62.3%. With `Cc1ccccc1-n1nc(-c2c(-c3ccc(F)cc3)nn3c2NCC(C)(C)C3)ccc1=O` [Example 132, 6-[2-(4-Fluorophenyl)-6,6-dimethyl-4,5,6,7-teterahydropyrazolo[1,5-a]pyrimidin-3-yl]-2-(2-methylphenyl)pyridazin-3(2H)-one] the inhibition in vivo at 1 mg/kg was 60.4%.
